The record followed here is US7851637B2, “Compounds and methods for inhibiting the interaction of BCL proteins with binding partners” (Infinity Pharmaceuticals, Inc., priority 2004, dated 2010).

One test concerns the target Bcl-2 (Homo sapiens, UniProt P10415). The test can be described thus: Bcl-2 binding affinity analysis (fluorescence polarization binding assay). The procedure, abridged:
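Binding to human Bcl-2 quantified in vitro by a fluorescence polarization assay.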
(In general: Fluorescence polarisation rises when a labelled molecule tumbles more slowly, as on binding a larger partner.)

Another test addresses Bcl-xL (Homo sapiens, UniProt Q07817). The test can be described thus: Bcl-xL binding affinity analysis (fluorescence polarization binding assay). Also on record: scale not given here. A digest of the protocol:
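In vitro fluorescence polarization binding assay measuring compound binding to human Bcl-xL.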

Chain of Bcl-xL (Q07817 whole entry): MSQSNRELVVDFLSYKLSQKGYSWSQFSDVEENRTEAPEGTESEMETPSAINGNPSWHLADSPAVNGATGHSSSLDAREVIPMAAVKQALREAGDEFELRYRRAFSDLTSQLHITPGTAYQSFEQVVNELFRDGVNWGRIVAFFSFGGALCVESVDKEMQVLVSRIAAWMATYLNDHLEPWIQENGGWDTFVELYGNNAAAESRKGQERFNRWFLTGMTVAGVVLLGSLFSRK
Chain of Bcl-2 (P10415 whole entry): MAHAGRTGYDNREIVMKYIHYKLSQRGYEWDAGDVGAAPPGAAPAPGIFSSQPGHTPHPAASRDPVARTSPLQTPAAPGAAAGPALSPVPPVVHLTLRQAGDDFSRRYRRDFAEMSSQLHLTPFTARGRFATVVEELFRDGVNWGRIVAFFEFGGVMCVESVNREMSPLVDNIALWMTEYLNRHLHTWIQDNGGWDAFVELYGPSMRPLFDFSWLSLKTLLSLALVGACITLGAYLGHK

In general, Ki refers to a measure of affinity in units of concentration, obtained from inhibition or displacement. On to `CC(O)C1C(CO)ON(Cc2cccc(CN(CCN(C)C)c3ccccc3)c2)C1C(=O)NC1CC2CC(C1C)C2(C)C` (stereo not drawn) [Compound 476], for which the Ki on Bcl-2 is < 0.8 µM. The “Bcl-XL binding affinity Ki” value on Bcl-xL is “♯”.
Taken in the same sequence, the figures for `CC(O)C1C(CO)ON(Cc2cccc(C(=O)NC(CC3CCCCC3)CN(C)C)c2)C1C(=O)NC1CC2CC(C1C)C2(C)C` (stereo not drawn) [Compound 499] were < 0.8 µM and “♯”.
Taken in the same sequence, the figures for `CC(O)C1C(CO)ON(Cc2cccc(C(=O)NCCc3ccccc3)c2)C1C(=O)NC1CC2CC(C1C)C2(C)C` (stereo not drawn) [Compound 503] were < 0.8 µM and “♯”.
With `CC(O)C1C(CO)ON(Cc2cccc(C(=O)N(CCN(C)C)Cc3ccccc3)c2)C1C(=O)NC1CC2CC(C1C)C2(C)C` (stereo not drawn) [Compound 504], at Bcl-2, the Ki was < 0.8 µM. For the same compound, the “Bcl-XL binding affinity Ki” value at Bcl-xL is “♯”.
On to `CC(O)C1C(CO)ON(Cc2cccc(C(=O)NC(CN(C)C)c3ccccc3)c2)C1C(=O)NC1CC2CC(C1C)C2(C)C` (stereo not drawn) [Compound 506], for which, on Bcl-2, the Ki was < 0.8 µM. Besides, the “Bcl-XL binding affinity Ki” value on Bcl-xL was “♯”.
Turning to `CC(O)C1C(CO)ON(Cc2cccc(C(=O)NCc3ccccc3)c2)C1C(=O)NC1CC2CC(C1C)C2(C)C` (stereo not drawn) [Compound 510], the Ki at Bcl-2 is < 0.8 µM. In addition, the “Bcl-XL binding affinity Ki” value on Bcl-xL is reported as “♯”.
On the same counts, the results for `CC(O)C1C(CO)ON(Cc2cccc(C(=O)NC(CCc3ccccc3)CN(C)C)c2)C1C(=O)NC1CC2CC(C1C)C2(C)C` (stereo not drawn) [Compound 511] are < 0.8 µM and “♯”.
`C[C@H](O)[C@@H]1[C@H](CO)ON(Cc2cccc(CN(CCN(C)C)Cc3ccccc3)c2)[C@@H]1C(=O)NCCc1cccc(-c2ccccc2)c1` [Compound 513]: the Ki at Bcl-2 fell in the range of 0.8 to 6 µM. Further, the “Bcl-XL binding affinity Ki” value at Bcl-xL is “♯”.
On the same counts, the results for `C[C@H](O)[C@@H]1[C@H](CO)ON(Cc2cccc(CN(CCN(C)C)Cc3ccccc3)c2)[C@@H]1C(=O)NCCc1cccc(Br)c1` [Compound 514] are 0.8 to 6 µM and “♯”.
Taken in the same sequence, the figures for `C[C@H](O)[C@@H]1[C@H](CO)ON(Cc2cccc(CN(CCN(C)C)Cc3ccccc3)c2)[C@@H]1C(=O)Nc1cccc(-c2ccccc2)c1` [Compound 515] were < 0.8 µM and “♯”.
For the compound `C[C@H](O)[C@@H]1[C@H](CO)ON(Cc2cccc(CN(CCN(C)C)Cc3ccccc3)c2)[C@@H]1C(=O)NCCc1c[nH]c2ccccc12` [Compound 516], the Ki on Bcl-2 was in the range of 6 to 50 µM. Moreover, at Bcl-xL, the “Bcl-XL binding affinity Ki” value is recorded as “♯”.
Taken in the same sequence, the figures for `C[C@H](O)[C@@H]1[C@H](CO)ON(Cc2cccc(CN(CCN(C)C)Cc3ccccc3)c2)[C@@H]1C(=O)NCCCN(C)C` [Compound 517] were 6 to 50 µM and “♯”.
At Bcl-2, `C[C@H](O)[C@@H]1[C@H](CO)ON(Cc2cccc(CN(CCN(C)C)Cc3ccccc3)c2)[C@@H]1C(=O)N[C@H]1CCN(Cc2ccccc2)C1` [Compound 518] displayed a Ki of 6 to 50 µM. For the same compound, the “Bcl-XL binding affinity Ki” value on Bcl-xL is listed as “♯”.
Consider `C[C@H](O)[C@@H]1[C@H](CO)ON(Cc2cccc(CN(CCN(C)C)Cc3ccccc3)c2)[C@@H]1C(=O)NCCCCc1ccccc1` [Compound 519], for which, at Bcl-2, the Ki lay in the range of 0.8 to 6 µM. Moreover, the “Bcl-XL binding affinity Ki” value on Bcl-xL is recorded as “♯”.
On the same counts, the results for `C[C@H](O)[C@@H]1[C@H](CO)ON(Cc2cccc(CN(CCN(C)C)Cc3ccccc3)c2)[C@@H]1C(=O)NCC(c1ccccc1)c1ccccc1` [Compound 520] are 0.8 to 6 µM and “♯”.
On the same counts, the results for `C[C@H](NC(=O)[C@@H]1[C@H]([C@H](C)O)[C@H](CO)ON1Cc1cccc(CN(CCN(C)C)Cc2ccccc2)c1)c1ccc2ccccc2c1` [Compound 521] are 0.8 to 6 µM and “♯”.
On the same counts, the results for `C[C@H](O)[C@@H]1[C@H](CO)ON(Cc2cccc(CN(CCN(C)C)Cc3ccccc3)c2)[C@@H]1C(=O)N[C@H](C)c1ccc2ccccc2c1` [Compound 522] are 0.8 to 6 µM and “♯”.
As for `C[C@H](O)[C@@H]1[C@H](CO)ON(Cc2cccc(CN(CCN(C)C)Cc3ccccc3)c2)[C@@H]1C(=O)NCCCc1ccccc1` [Compound 525], on Bcl-2, the inhibition constant (Ki) lay within 6 to 50 µM. Also, at Bcl-xL, the “Bcl-XL binding affinity Ki” value is on record as “♯”.
On the same counts, the results for `C[C@H](O)[C@@H]1[C@H](CO)ON(Cc2cccc(CN(CCN(C)C)Cc3ccccc3)c2)[C@@H]1C(=O)NCc1ccc(-c2ccccc2)cc1` [Compound 526] are < 0.8 µM and “♯”.
`C[C@H](O)[C@@H]1[C@H](CO)ON(Cc2cccc(CN(CCN(C)C)Cc3ccccc3)c2)[C@@H]1C(=O)NC1CCN(Cc2ccccc2)CC1` [Compound 527]: the Ki on Bcl-2 was 6 to 50 µM. Moreover, the “Bcl-XL binding affinity Ki” value at Bcl-xL is “♯”.
On the same counts, the results for `C[C@H](O)[C@@H]1[C@H](CO)ON(Cc2cccc(CN(CCN(C)C)Cc3ccccc3)c2)[C@@H]1C(=O)NC1CCN(C(=O)OC(C)(C)C)CC1` [Compound 528] are 6 to 50 µM and “♯”.
Take `CC(C)C[C@@H](CN(C)C)N(Cc1ccccc1)Cc1cccc(CN2O[C@@H](CO)[C@@H]([C@H](C)O)[C@H]2C(=O)NCCCn2ccnc2)c1` [Compound 529]: at Bcl-2, the Ki fell in the range of 6 to 50 µM. In addition, on Bcl-xL, the “Bcl-XL binding affinity Ki” value was “♯”.
Taken in the same sequence, the figures for `CC(C)C[C@@H](CN(C)C)N(Cc1ccccc1)Cc1cccc(CN2O[C@@H](CO)[C@@H]([C@H](C)O)[C@H]2C(=O)NCc2ccc(Oc3ccccc3)cc2)c1` [Compound 530] were 0.8 to 6 µM and “♯”.
`CC(C)C[C@@H](CN(C)C)N(Cc1ccccc1)Cc1cccc(CN2O[C@@H](CO)[C@@H]([C@H](C)O)[C@H]2C(=O)NCCCN(C)c2ccccc2)c1` [Compound 531] yielded a Ki at Bcl-2 of 0.8 to 6 µM. Moreover, the “Bcl-XL binding affinity Ki” value on Bcl-xL is reported as “♯”.
At Bcl-2, `CC(C)C[C@@H](CN(C)C)N(Cc1ccccc1)Cc1cccc(CN2O[C@@H](CO)[C@@H]([C@H](C)O)[C@H]2C(=O)NCc2cccc3ccccc23)c1` [Compound 532] yielded a Ki of 0.8 to 6 µM. Further, the “Bcl-XL binding affinity Ki” value on Bcl-xL is “♯”.
On to `CC(C)CCNC(=O)[C@@H]1[C@H]([C@H](C)O)[C@H](CO)ON1Cc1cccc(CN(Cc2ccccc2)[C@@H](CC(C)C)CN(C)C)c1` [Compound 533], for which the Ki on Bcl-2 lay in the range of 0.8 to 6 µM. The “Bcl-XL binding affinity Ki” value on Bcl-xL was “♯”.
The compound `COCCNC(=O)[C@@H]1[C@H]([C@H](C)O)[C@H](CO)ON1Cc1cccc(CN(Cc2ccccc2)[C@@H](CC(C)C)CN(C)C)c1` [Compound 535] gave a Ki on Bcl-2 of 6 to 50 µM. Also, the “Bcl-XL binding affinity Ki” value on Bcl-xL is given as “♯”.
With `CC(C)C[C@@H](CN(C)C)N(Cc1ccccc1)Cc1cccc(CN2O[C@@H](CO)[C@@H]([C@H](C)O)[C@H]2C(=O)NCc2ccc(-c3ccccc3)cc2)c1` [Compound 536], on Bcl-2, the Ki is 0.8 to 6 µM. Besides, the “Bcl-XL binding affinity Ki” value on Bcl-xL is reported as “♯”.
Taken in the same sequence, the figures for `CC(C)C[C@@H](CN(C)C)N(Cc1ccccc1)Cc1cccc(CN2O[C@@H](CO)[C@@H]([C@H](C)O)[C@H]2C(=O)NCc2cccc(-c3ccccc3)c2)c1` [Compound 537] were 0.8 to 6 µM and “♯”.
Taken in the same sequence, the figures for `CC(C)C[C@@H](CN(C)C)N(Cc1ccccc1)Cc1cccc(CN2O[C@@H](CO)[C@@H]([C@H](C)O)[C@H]2C(=O)NC(C)C)c1` [Compound 539] were 6 to 50 µM and “♯”.
